In patent US20230104315A1, “METHOD OF IDENTIFYING EXTRACHROMOSOMAL DNA SIGNATURES” (Boundless Bio, Inc., priority 2020, published 2023):

Test system: SNU16 cells
Test: ecDNA copy number from exome data of SNU16 cells under sequential infigratinib and erlotinib treatment
Format: cell-based, human
Conditions: FIG. 19; for MYC and PDHX ecDNA copy numbers: 1 μM infigratinib up to 12 weeks, followed by 5 μM erlotinib up to four weeks; for EGFR ecDNA copy number: 1 μM infigratinib, followed by 5 μM erlotinib
Experimental: Exomes were prepared using Human Core Exome kit (Twist Bioscience) and sequenced on an Illumina platform with 2×150 paired-end read configuration.
Sequencing data was processed according to genome analysis tool kit (GATK) recommended practices (see gatk.groadinstitute.org/hc/en-us/articles/30035894731-Somatic-short-variant-discovery-SVNs-Indels-). Briefly, raw reads were aligned to the human genome (version GRCh37) using Burrows-Wheeler aligner (BWA) […] exact match (MEM). Small somatic variations were then extracted using Mutect2 (GATK v4.1.9.0) and filtered using FilterMutectCalls.
A culture of SNU16 cells was subjected to a sequence of treatments, starting with infigratinib and followed with erlotinib. Exome data was obtained from these cells at various time points during this experiment: before treatment with infigratinib, two weeks into treatment with 1 μM infigratinib, after 12 weeks of treatment with 1 μM infigratinib, before treatment with erlotinib, two weeks into treatment with 5 μM erlotinib, and four weeks into treatment with 5 μM erlotinib. VCF files produced by GATK Mutect2 were used to calculate rates of substitutions, insertions, and deletions in one million nucleotide-long genomic windows over the entire autosomal genome. Mean coverage depth was estimated by averaging depth for all mutations in that particular genomic window as reported in the VCF file.

Compound | MYC and PDHX ecDNA copy numbers | EGFR ecDNA copy number | FGFR2 ecDNA copy number (during treatment with 1 μM infigratinib)
C#Cc1cccc(Nc2ncnc3cc(OCCOC)c(OCCOC)cc23)c1 [erlotinib] | mostly stable | went back down | 
CCN1CCN(c2ccc(Nc3cc(N(C)C(=O)Nc4c(Cl)c(OC)cc(OC)c4Cl)ncn3)cc2)CC1 [infigratinib] | mostly stable | dramatically increased | moderately decreased
